According to ChEMBL document CHEMBL1154817, “Tartrolon D, a cytotoxic macrodiolide from the marine-derived actinomycete Streptomyces sp. MDG-04-17-069” (J Nat Prod, 2009):
In brackets after ≈: the same amount, converted by molar mass.

How the values were obtained:
[1] = test system: L929; test: Cytotoxicity against mouse L929 cells; type: functional
[2] = test system: HT-29; test: Cytotoxicity against human HT-29 cells after 72 hrs by sulforhodamine B assay; type: functional; conditions: HT-29, 72 h
[3] = test system: MDA-MB-231; test: Cytotoxicity against human MDA-MB-231 cells after 72 hrs by sulforhodamine B assay; type: functional; conditions: MDA-MB-231, 72 h
[4] = test system: A549; test: Cytotoxicity against human A549 cells after 72 hrs by sulforhodamine B assay; type: functional; conditions: A549, 72 h
[5] = Inhibition of hypoxia-induced HIF1 transcriptional activity

| Structure (SMILES) | MIC [1] | GI50 [2] | TGI [2] | GI50 [3] | TGI [3] | GI50 [4] | TGI [4] | LC50 (concentration killing 50% of cells) [2] | LC50 (50% lethal concentration) [3] | LC50 [4] | IC50 [5] |
| --- | --- | --- | --- | --- | --- | --- | --- | --- | --- | --- | --- |
| C[C@@H]1C(=O)C[C@@H](O)CC/C=C/C=C\CC[C@H](C)OC(=O)C(O)[C@]2(O)O[C@@H](CC[C@H]2C)[C@H](C)C(=O)C[C@@H](O)CC/C=C/C=C\CC[C@H](C)OC(=O)C(O)[C@]2(O)O[C@H]1CC[C@H]2C (some centres not stated) [TARTROLON A] | 70 µg/mL (≈ 82.4 µM) |  |  |  |  |  |  |  |  |  |  |
| COc1cccc2c1C(=O)c1c(O)c3c(c(O)c1C2=O)C[C@@](O)(C(C)=O)C[C@@H]3O[C@H]1C[C@H](N)[C@H](O)[C@H](C)O1 [DAUNORUBICIN] |  | 0.07 µM | 0.33 µM | 0.02 µM | 0.12 µM | 0.08 µM | 0.17 µM |  |  |  |  |
| C[C@@H]1CC[C@H]2CC(=O)C[C@@H](O)CC/C=C/C=C\CC[C@H](C)OC(=O)C(O)[C@]3(O)O[C@@H](CC[C@H]3C)CC(=O)C[C@@H](O)CC/C=C/C=C\CC[C@H](C)OC(=O)C(O)[C@]1(O)O2 (some centres not stated) [TARTROLON D] |  | 0.31 µM | 1.71 µM | 0.79 µM | 3.41 µM | 0.16 µM | 1.46 µM | 8.41 µM | 11 µM | 8.05 µM |  |
| C[C@@H]1C(=O)C[C@@H](O)CC/C=C/C=C\CC[C@H](C)OC(=O)[C@@H]2O[B-]34O[C@@H](C(=O)O[C@@H](C)CC/C=C\C=C\CC[C@H](O)CC(=O)[C@@H](C)[C@@H]5CC[C@](C)(O)[C@]2(O5)O3)[C@@]2(O[C@H]1CC[C@]2(C)O)O4 [TARTROLON C] |  |  |  |  |  |  |  |  |  |  | 0.17 µg/mL |
